# Measured values: patent US9399626B2, “2-thiopyrimidinones” (Pfizer Inc., priority 2011, dated 2016)
# Structures can show the parent of a compound that is named as a salt.
# Target: T1, MPO (purified from human polynuclear leukocytes) (Homo sapiens, UniProt P05164)
# T1 construct: purified from human polynuclear leukocytes; purchased Calbiochem/EMD Biosciences; host or cells: human polynuclear leukocytes (natural source)
# Test: MPO Amplex Red Activity Assay
# Format: biochemical
# Settings: Table 1, 2 μM H2O2, pH 7.4
# How it was run: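 Human leukocyte MPO […] oxidises 30 μM Amplex Red with 2 μM H2O2 in 50 mM NaPi pH 7.4, 150 mM NaCl, 1 mM DTPA, 2% DMSO. Resorufin fluorescence (ex 530/em 580 nm) read every 20 s, minus catalase background. kobs from the first 600 s, corrected for auto-inactivation, fit versus [I] for kinact/KI.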
# T1 sequence (P05164 279-745 limits assumed): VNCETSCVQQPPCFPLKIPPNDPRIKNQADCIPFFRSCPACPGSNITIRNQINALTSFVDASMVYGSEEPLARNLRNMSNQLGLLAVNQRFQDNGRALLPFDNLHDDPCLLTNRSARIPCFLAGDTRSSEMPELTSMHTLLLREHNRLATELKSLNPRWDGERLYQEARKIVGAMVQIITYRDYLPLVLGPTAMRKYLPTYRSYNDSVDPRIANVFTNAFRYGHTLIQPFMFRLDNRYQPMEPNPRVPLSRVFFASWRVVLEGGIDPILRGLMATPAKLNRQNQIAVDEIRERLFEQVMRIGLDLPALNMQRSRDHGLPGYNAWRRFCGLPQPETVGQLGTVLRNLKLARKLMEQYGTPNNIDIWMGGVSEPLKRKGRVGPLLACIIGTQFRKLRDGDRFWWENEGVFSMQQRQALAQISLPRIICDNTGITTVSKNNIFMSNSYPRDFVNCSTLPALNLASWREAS
# T1 sequence (P05164 165-273 limits assumed): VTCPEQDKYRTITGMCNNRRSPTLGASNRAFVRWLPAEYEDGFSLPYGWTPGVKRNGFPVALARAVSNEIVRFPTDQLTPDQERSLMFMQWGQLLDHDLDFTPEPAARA
row,MPO kinact/Ki,Compound
1,5340 1/s per M,"COCCn1c(-c2ccc3c(c2)CCO3)cc(=O)[nH]c1=S [Example 308, 6-(2,3-dihydro-1-benzofuran-5-yl)-1-(2-methoxyethyl)-2-thioxo-2,3-dihydropyrimidin-4(1H)-one]"
2,7510 1/s per M,"COc1ccc(-c2cc(=O)[nH]c(=S)n2CCNC2=NCCN2)c(OC)c1 [Example 250, 1-[2-(4,5-dihydro-1H-imidazol-2-ylamino)ethyl]-6-(2,4-dimethoxyphenyl)-2-thioxo-2,3-dihydropyrimidin-4(1H)-one]"
3,246 1/s per M,"COc1ccc(-c2cc(=O)[nH]c(=S)n2CCOCC(=O)O)c(OC)c1 [Example 246, {2-[6-(2,4-dimethoxyphenyl)-4-oxo-2-thioxo-3,4-dihydropyrimidin-1(2H)-yl]ethoxy}acetic acid]"
4,14100 1/s per M,"COc1ccc(-c2cc(=O)[nH]c(=S)n2CCCCCN)c(OC)c1 [Example 218, 1-(5-aminopentyl)-6-(2,4-dimethoxyphenyl)-2-thioxo-2,3-dihydropyrimidin-4(1H)-one hydrochloride]"
5,6960 1/s per M,"COCCn1c(-c2c(OC)cccc2OC)cc(=O)[nH]c1=S [Example 180, 6-(2,6-dimethoxyphenyl)-1-(2-methoxyethyl)-2-thioxo-2,3-dihydropyrimidin-4(1H)-one]"
6,9510 1/s per M,"COc1ccc(-c2cc(=O)[nH]c(=S)n2CCOCCN)c(OC)c1 [Example 269, 1-[2-(2-aminoethoxy)ethyl]-6-(2,4-dimethoxyphenyl)-2-thioxo-2,3-dihydropyrimidin-4(1H)-one hydrochloride]"
7,11400 1/s per M,"COc1ccc(C)cc1-c1cc(=O)[nH]c(=S)n1CCN [Example 159, 1-(2-aminoethyl)-6-(2-methoxy-5-methylphenyl)-2-thioxo-2,3-dihydropyrimidin-4(1H)-one hydrochloride]"
8,3550 1/s per M,"COc1ccc(-c2cc(=O)[nH]c(=S)n2CCNC(=O)[C@@H](C)N)c(OC)c1 [Example 255, N-{2-[6-(2,4-dimethoxyphenyl)-4-oxo-2-thioxo-3,4-dihydropyrimidin-1(2H)-yl]ethyl}-D-alaninamide trifluoroacetate]"
9,8740 1/s per M,"COc1ccc(-c2cc(=O)[nH]c(=S)n2CC2CNCCO2)c(OC)c1 (stereo not drawn) [Example 238, 6-(2,4-dimethoxyphenyl)-1-(morpholin-2-ylmethyl)-2-thioxo-2,3-dihydropyrimidin-4(1H)-one hydrochloride]"
10,6570 1/s per M,"COc1cc(OC)cc(-c2cc(=O)[nH]c(=S)n2CCN)c1 [Example 48, 1-(2-aminoethyl)-6-(3,5-dimethoxyphenyl)-2-thioxo-2,3-dihydropyrimidin-4(1H)-one hydrochloride]"
11,914 1/s per M,"COCCn1c(-c2cccc(S(C)(=O)=O)c2)cc(=O)[nH]c1=S [Example 109, 1-(2-methoxyethyl)-6-[3-(methylsulfonyl)phenyl]-2-thioxo-2,3-dihydropyrimidin-4(1H)-one]"
12,1070 1/s per M,"COCCn1c(-c2ccccc2CO)cc(=O)[nH]c1=S [Example 292, 6-[2-(hydroxymethyl)phenyl]-1-(2-methoxyethyl)-2-thioxo-2,3-dihydropyrimidin-4(1H)-one]"
13,1180 1/s per M,"COCCn1c(-c2cccs2)cc(=O)[nH]c1=S [Example 282, 1-(2-methoxyethyl)-6-(2-thienyl)-2-thioxo-2,3-dihydropyrimidin-4(1H)-one]"
14,8950 1/s per M,"O=c1cc(-c2cccc3ccccc23)n(CCO)c(=S)[nH]1 [Example 162, 1-(2-hydroxyethyl)-6-(1-naphthyl)-2-thioxo-2,3-dihydropyrimidin-4(1H)-one]"
15,14300 1/s per M,"COCCn1c(-c2cc3c(cc2OC)CCCC3)cc(=O)[nH]c1=S [Example 341, 1-(2-methoxyethyl)-6-(3-methoxy-5,6,7,8-tetrahydronaphthalen-2-yl)-2-thioxo-2,3-dihydropyrimidin-4(1H)-one]"
16,3180 1/s per M,"COc1ccc(F)cc1-c1cc(=O)[nH]c(=S)n1CCN.Cl [Example 26, 1-(2-aminoethyl)-6-(5-fluoro-2-methoxyphenyl)-2-thioxo-2,3-dihydropyrimidin-4(1H)-one hydrochloride]"
17,11100 1/s per M,"COc1ccc(-c2cc(=O)[nH]c(=S)n2CCCN)c(OC)c1 [Example 178, 1-(3-aminopropyl)-6-(2,4-dimethoxyphenyl)-2-thioxo-2,3-dihydropyrimidin-4(1H)-one formate]"
18,6070 1/s per M,"O=c1cc(-c2cccc3ncsc23)n(CCO)c(=S)[nH]1 [Example 42, 6-(1,3-benzothiazol-7-yl)-1-(2-hydroxyethyl)-2-thioxo-2,3-dihydropyrimidin-4(1H)-one]"
19,8200 1/s per M,"COCCn1c(-c2ccc(OC)cc2OC)cc(=O)[nH]c1=S [Example 182, 6-(2,4-dimethoxyphenyl)-1-(2-methoxyethyl)-2-thioxo-2,3-dihydropyrimidin-4(1H)-one]"
20,4090 1/s per M,"CNC(=O)Cn1c(-c2ccc(OC)cc2OC)cc(=O)[nH]c1=S [Example 190, 2-[6-(2,4-dimethoxyphenyl)-4-oxo-2-thioxo-3,4-dihydropyrimidin-1(2H)-yl]-N-methylacetamide]"
21,762 1/s per M,"COCCn1c(-c2ccnc(OC)c2)cc(=O)[nH]c1=S [Example 297, 1-(2-methoxyethyl)-6-(2-methoxypyridin-4-yl)-2-thioxo-2,3-dihydropyrimidin-4(1H)-one]"
22,9730 1/s per M,"COCCn1c(-c2cccc3ncsc23)cc(=O)[nH]c1=S [Example 78, 6-(1,3-benzothiazol-7-yl)-1-(2-methoxyethyl)-2-thioxo-2,3-dihydropyrimidin-4(1H)-one]"
23,4190 1/s per M,"NCCCn1c(-c2ccc3c(c2)OCCO3)cc(=O)[nH]c1=S [Example 76, 1-(3-aminopropyl)-6-(2,3-dihydro-1,4-benzodioxin-6-yl)-2-thioxo-2,3-dihydropyrimidin-4(1H)-one hydrochloride]"
24,14900 1/s per M,"COc1ccc(C)cc1-c1cc(=O)[nH]c(=S)n1CC(N)=O [Example 164, 2-[6-(2-methoxy-5-methylphenyl)-4-oxo-2-thioxo-3,4-dihydropyrimidin-1(2H)-yl]acetamide]"
25,4520 1/s per M,"COc1ccc(-c2cc(=O)[nH]c(=S)n2Cc2ccncc2)c(OC)c1 [Example 232, 6-(2,4-dimethoxyphenyl)-1-(pyridin-4-ylmethyl)-2-thioxo-2,3-dihydropyrimidin-4(1H)-one]"
26,5810 1/s per M,"COc1ccc(F)cc1-c1cc(=O)[nH]c(=S)n1CCNC(=O)CN [Example 127, N-{2-[6-(5-fluoro-2-methoxyphenyl)-4-oxo-2-thioxo-3,4-dihydropyrimidin-1(2H)-yl]ethyl} glycinamide hydrochloride]"
27,5000 1/s per M,"COCCn1c(-c2cccc3c2OCC3)cc(=O)[nH]c1=S [Example 41, 6-(2,3-dihydro-1-benzofuran-7-yl)-1-(2-methoxyethyl)-2-thioxo-2,3-dihydropyrimidin-4(1H)-one]"

# Same assay, conditions: Table 1A, 2 μM H2O2, pH 7.4
row,MPO kinact/Ki,Compound
1,4460 1/s per M,"COc1ccc(OCCO)cc1-c1cc(=O)[nH]c(=S)n1CC(N)=O [Example 422, 2-{6-[5-(2-hydroxyethoxy)-2-methoxyphenyl]-4-oxo-2-thioxo-3,4-dihydropyrimidin-1(2H)-yl}acetamide]"
2,4960 1/s per M,"COc1cccc(OC)c1-c1cc(=O)[nH]c(=S)n1CC(N)=O [Example 386, 2-[6-(2,6-dimethoxyphenyl)-4-oxo-2-thioxo-3,4-dihydropyrimidin-1(2H)-yl}acetamide]"
3,16000 1/s per M,"COc1ccc(Cl)cc1-c1cc(=O)[nH]c(=S)n1CCCNC(=N)NCC(C)(F)F [Example 451, 1-{3-[6-(5-chloro-2-methoxyphenyl)-4-oxo-2-thioxo-3,4-dihydropyrimidin-1(2H)-yl]propyl}-3-(2,2-difluoropropyl)guanidine]"
4,7730 1/s per M,"COc1ccc(Cl)cc1-c1cc(=O)[nH]c(=S)n1CCCNC(=N)N1CCCC1 [Example 450, N-{3-[6-(5-chloro-2-methoxyphenyl)-4-oxo-2-thioxo-3,4-dihydropyrimidin-1(2H)-yl]propyl}pyrrolidine-1-carboximidamide]"
5,4910 1/s per M,"COc1ccc(-c2cc(=O)[nH]c(=S)n2CC(=O)N2CC[C@@H](N)C2)c(OC)c1 [Example 389, 1-{2-[(3R)-3-aminopyrrolidin-1-yl]-2-oxoethyl}-6-(2,4-dimethoxyphenyl)-2-thioxo-2,3-dihydropyrimidin-4(1H)-one]"
6,18000 1/s per M,"COc1ccc(-c2cc(=O)[nH]c(=S)n2CCO)c(OCCO)c1 [Example 409, 6-[2-(2-hydroxyethoxy)-4-methoxyphenyl]-1-(2-hydroxyethyl)-2-thioxo-2,3-dihydropyrimidin-4(1H)-one]"
7,2420 1/s per M,"CCCNC(=O)Cn1c(-c2ccc(OC)cc2OC)cc(=O)[nH]c1=S [Example 435, 2-[6-(2,4-dimethoxyphenyl)-4-oxo-2-thioxo-3,4-dihydropyrimidin-1(2H)-yl]-N-propylacetamide]"
8,4950 1/s per M,"CC(=O)OCCOc1ccc(F)cc1-c1cc(=O)[nH]c(=S)n1CC(N)=O [Example 421, 2-{2-[3-(2-amino-2-oxoethyl)-6-oxo-2-thioxo-1,2,3,6-tetrahydropyrimidin-4-yl]-4-fluorophenoxy}ethyl acetate]"
9,9290 1/s per M,"CSc1ccccc1-c1cc(=O)[nH]c(=S)n1CC(N)=O [Example 365, 2-{6-[2-(methylsulfanyl)phenyl]-4-oxo-2-thioxo-3,4-dihydropyrimidin-1(2H)yl}acetamide]"
